Measured values published in patent US20210340130A1, “Compositions and methods for treating attention deficit disorders” (priority 2016, published 2021).
Values after ≈ are worked out from the molar mass of the structure shown. Where two headings read alike, the source gives them in different places.

Key:
Rat (SD) [1] = assay: Amphetamine-stimulated locomotion and rearing in rats; format: in vivo; settings: for Minimum Effective Dose: PO, dose range 1-10 mg/kg
Procedure: Effects of exemplary low impact ampakines were also evaluated in mice for the ability to inhibit amphetamine-stimulated locomotor activity. Mice were placed in the locomotor chamber for 20 min to habituate, removed, injected with either vehicle or anti-ADHD ampakine (CX717), and 5 min later injected with 2 mg/kg i.p. Amphetamine. Mice were returned to the locomotor chamber 10 min later, and their activity measured for a further 15 min. In related studies, adult male CD1 mice or male Sprague-Dawley rats were acclimated in a test chamber for 20 minutes removed and dosed i.p. (mice) or orally (rats) with CX1739, vehicle, or a reference compound. Five (mice) or 10 (rats) were then injected with amphetamine (2 mg/kg, i.p.) or saline vehicle and were returned to the activity test chamber.

Rat (SD) [2] = assay: Radial arm maze - spatial memory; format: in vivo; settings: for Minimum Effective Dose: IP
Procedure: Yet another animal model for evaluating ampakine drug activity employed herein is the well known and widely accepted Radial Arm Maze model. CX717 was tested for its ability to improve the performance of aged rats in an eight-arm radial maze using a cross-over design study. This behavioral test uses a standard eight-arm radial maze wherein five arms were open and baited with food pellets for the first morning session. Each animal was allowed to consume the food rewards present in the open arms and was then returned to its home cage. Six hours later animals were returned to the maze, wherein all eight-arms were open, but only the three arms previously closed contained food rewards. Scoring was based on the number of correct choices before an incorrect choice (re-entering an arm that was visited during the morning acquisition session) was made and on the total number of incorrect choices made before all three of the still baited arms were visited. CX717 was tested at six doses (0.03, 0.1, 0.3, 1, 3 and 10 mg/kg in hydroxypropyl β-cyclodextran, i.p.), administered 30 min prior to the start of the morning acquisition session and no drug was given prior to the second trial six hours later.
For CX1739 male Sprague-Dawley rats were trained to perform the win shift assay on the radial arm maze for approximately 10 weeks prior to the study. On each day of training and testing, each rat completed one trial, split into a sample phase and a test phase. During the sample phase, the rat was placed on a 12-arm radial arm maze surrounded by visual cues. Food wells at the end of each arm were baited with sucrose pellets but access to three arms, selected randomly, was blocked with a clear plastic divider at the arm entrance. The rat was allowed 5 minutes to search the maze and collect the available food pellets before being removed from the maze. Fifteen minutes later the rat was returned to the maze for the test phase of the trial. During the test phase, the rat was allowed access to all 12 arms of the maze but only the arms that had been blocked previously were baited with sucrose pellets. The rat was allowed 3 minutes to collect the available food pellets before being removed from the maze. On test days, rats were injected with CX1739 (0.03-1.0 mg/kg, i.p.) or vehicle immediately following the sample phase of the study. The primary dependent measure was the cumulative number of arm entries prior to entering the first, second, and third baited arm during the test phase.

[3] = tested on: aged Rhesus macaque monkeys; assay: Delayed match-to-sample test; format: in vivo, Monkey (Rhesus); settings: for Minimum Effective Dose: PO
Procedure: Further elucidating the potent behavioral and cognitive effects of exemplary ampakines useful within the invention, additional studies using the well known Monkey Delayed Match to Sample assay were conducted. CX1739 was evaluated using aged Rhesus macaque monkeys (18 to 33 years old), undertaking the delayed match-to-sample (DMTS) task. The stimuli included red, blue, or yellow rectangles. A trial was initiated by presentation of a sample rectangle composed of one of the three colors. The sample rectangle remained in view until the monkey touched within its borders to initiate a pre-programmed delay (retention) interval. Following the delay interval, two choice rectangles were presented, with one of the two choice colors being the color matching the stimulus and the other (incorrect) color as one of the two remaining colors. A correct (matching) choice was reinforced. Non-matching choices were neither reinforced nor punished. The duration for each delay interval was adjusted for each subject until […] of group performance accuracy approximated zero delay (85-100% of trials answered correctly), short delay interval (75-84% correct), medium delay interval (65-74% correct), and long delay interval (55-64% correct). The inter-trial interval was 5 seconds and each session consisted of 96 trials.

[4] = Limit of solubility (in ACSF perfusion); format: physicochemical; settings: artificial cerebral spinal fluid (ACSF), aqueous buffer, kinetic from dmso stock
[5] = aged rats, eight-arm maze, 0.03-10 mg/kg i.p.

SMILES	amphetamine-stimulated locomotion activity (Rat (SD) [1]; 3 mg/kg)	amphetamine-stimulated rearing (Rat (SD) [1]; 1 and 3 mg/kg)	Minimum Effective Dose (Rat (SD) [1])	Minimum Effective Dose (Rat (SD) [2])	doses with highly significant difference in performance between drug and vehicle days (Rat (SD) [2]; Kruskal-Wallace P=0.008, Wilcoxon Signed Rank Test)	number of correct choices (before making an error) in the second maze session (Rat (SD) [2]; [5])	total number of errors (Rat (SD) [2]; [5])	Minimum Effective Dose [3]	amphetamine-stimulated rearing behavior (Rat (SD) [1]; rats, all doses tested)	entries before finding the third arm with a food pellet reward (Rat (SD) [2]; 0.3 mg/kg, 12-arm maze, p<0.05)	optimal dose (dose producing the maximal effect) in the maze assay (Rat (SD) [2]; ip)	performance with medium or long delays ([3]; oral, 45 min prior to testing)	mean accuracies during short delay trials relative to vehicle ([3]; oral, 45 min prior to testing, particularly the two higher doses, persisted at 24 hours)	task accuracy at the Best Dose ([3]; sessions 45 min after administration, P=0.027, restricted to long delay trials)	solubility ([4]; read-out: limit of solubility)	solubility ([4]; read-out: limit of the drug's solubility)
O=C(c1ccc2nonc2c1)N1CCOCC1 [CX717, 1-(benzofurazan-5-ylcarbonyl)morpholine]	significant decrease	inhibits rearing	1 mg/kg	0.3 mg/kg	≥ 0.3 mg/kg	dose-dependent increase	decrease	0.8 mg/kg								
CN(C(=O)c1ccc2nonc2c1)C1CCOCC1 [CX1739, N-Methyl-N-tetrahydro-2H-pyran-4-yl-[2,1,3]-benzoxadiazole-5-carboxamide]			1 mg/kg	0.3 mg/kg				0.3 mg/kg	modest reduction	significantly fewer entries	0.3 mg/kg	did not improve performance	increased	statistically significant increase in task accuracy	200 µM (≈ 52.3 µg/mL)	~200 µM (≈ 52.3 µg/mL)
